The source of these data is ChEMBL document CHEMBL1806489, “Synthesis and biological evaluation of novel F-18 labeled pyrazolo[1,5-a]pyrimidine derivatives: potential PET imaging agents for tumor detection” (Bioorg Med Chem Lett, 2011).

Holding throughout (assay type): ADME, cell-based
Data set [1] deals with CCRF S-180. Put plainly: Cellular uptake in mouse S180 cells after 30 mins. The conditions noted are these: ccrf s-180, 0.5 h.
Data set [2] relates to CCRF S-180. Description: Cellular uptake in mouse S180 cells after 60 mins. The conditions noted are these: ccrf s-180, 1 h.
Data set [3] concerns CCRF S-180. Description: Cellular uptake in mouse S180 cells relative to [18F]FDG.

With `O=C[C@H]([18F])[C@@H](O)[C@H](O)[C@H](O)CO`, the results for the Drug uptake entry in data set [1] and in data set [2] were “Active” and 9%, respectively.

For the compound `N[C@@H](Cc1ccc(OCC[18F])cc1)C(=O)O` [FLORETYROSINE F18], the Drug uptake in data set [3] is recorded as < 7%; in data set [2], 9%.
